The values below are quoted from earlier work in patent publication US20260317295A1, “NAV1.8 INHIBITORS, PREPARATION METHOD THEREFOR AND USE THEREOF” (SHANGHAI INSTITUTE OF MATERIA MEDICA, CHINESE ACADEMY OF …, priority 2023, published 2026).

Molecules are shown by their SMILES.

Data set [1] concerns Nav1.8. The settings on record: rodents.
Data set [2] deals with Nav1.8. The settings on record: rat, STZ-induced diabetic neuropathy, intraperitoneal or intraplantar.
Data set [3] relates to Nav1.8. The note with it: L7-1.8TG transgenic mice.

In the case of `COc1cc(NC(=O)c2ccc(-c3ccc(Cl)cc3)o2)cc(OC)c1` [Compound A-803467], the pain responses entry in data set [1] was “effectively alleviate pain responses”. Further, the pain behavioral responses entry in data set [2] was “dose-dependently alleviate the animals' pain behavioral responses”. Turning to `CNC(=O)c1ccc(-c2cc(Cl)cc(Cl)c2Cl)c(N)n1` [PF-01247324], the MS behaviors entry in data set [3] was “alleviate the MS behaviors”.
